The results in this text go back to ChEMBL document CHEMBL4138065, “Protein-ligand (un)binding kinetics as a new paradigm for drug discovery at the crossroad between experiments and modelling” (Medchemcomm, 2017).

Molecules are shown by their SMILES.

In the assay the target is T1, C5a anaphylatoxin chemotactic receptor 1 (Homo sapiens) (UniProt P21730).
T1 sequence (whole entry): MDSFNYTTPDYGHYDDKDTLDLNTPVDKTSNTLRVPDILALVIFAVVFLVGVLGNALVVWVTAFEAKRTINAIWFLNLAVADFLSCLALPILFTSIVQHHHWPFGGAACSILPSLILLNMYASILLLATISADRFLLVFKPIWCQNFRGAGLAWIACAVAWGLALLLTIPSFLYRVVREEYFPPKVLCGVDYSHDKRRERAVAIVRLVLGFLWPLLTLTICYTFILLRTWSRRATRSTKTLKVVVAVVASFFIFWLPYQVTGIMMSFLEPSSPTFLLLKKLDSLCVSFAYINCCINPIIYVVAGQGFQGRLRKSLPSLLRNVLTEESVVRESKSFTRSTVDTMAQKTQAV
Briefly: Antagonist activity at of C5aR in human macrophages assessed as half life of residence time for maintaining reduction in C5a-induced macrophage response. The assay is classed as functional.
Turning to `CCc1cccc(CC)c1-c1cc(OC(C)C)c2c(n1)CCCC2Nc1ccccc1CCO` (stereo not drawn), the T1/2 fell in the range of 1 to 3 h.
For the molecule `COc1ccc2c(c1)C(C(=O)N(Cc1ccc(N(C)C)cc1)c1ccc(C(C)C)cc1)CCC2` (stereo not drawn), the T1/2 was in the range of 1 to 3 h.
Take `CC(=O)N[C@@H](Cc1ccccc1)C(=O)N[C@H]1CCCNC(=O)[C@H](CCCN=C(N)N)NC(=O)[C@H](Cc2c[nH]c3ccccc23)NC(=O)[C@@H](CC2CCCCC2)NC(=O)[C@@H]2CCCN2C1=O`: the T1/2 turned out to be 20 h.
